Reference: patent US20240197897A1, “HETEROTANDEM BICYCLIC PEPTIDE COMPLEXES” (Bicycle Tx Limited, priority 2021, published 2024)
Starred links: 1 amine or outer side, 2 acyl side, 3 side chain; linkers in the order of their positions; H or OH if unused. Positions of bridges follow the written chain, without caps; N, C: chain ends. Non-standard residues stand in square brackets, D forms with d. Residues, ends and D or L forms follow the SMILES beside them. Chains are numbered I, II in the order given. No end group written: not given here. *: point of attachment. TATA = O=C(CC[*:1])N1CN(C(=O)CC[*:2])CN(C(=O)CC[*:3])C1; X2 = O=C(CCOCCOCCOCCOCCOCCn1cc(CCC(=O)[*:2])nn1)[*:1]; Hyp = O=C(O)[C@@H]1C[C@@H](O)CN1; hArg = N=C(N)NCCCC[C@H](N)C(=O)O; Cba = N[C@@H](CC1CCC1)C(=O)O; Pent4ynoyl = C#CCCC(=O)*

How the values were obtained:
[1] = NK cytotoxicity assay (NK:HT1080-luc co-culture, luciferase readout); assay type: cell-based, human; settings: NK:HT1080-luc co-culture, 24 hours, four-parameter logistic regression; FIGS. 2-4, 6-8, 10; read-out: EC50 NK cytotoxicity (tumor cell killing)
Description: (§1) Heterotandem bicyclic peptide complexes were evaluated for NK functional readouts (cytotoxicity and cytokine secretion) in NK-tumor cell line co-cultures.
(§2) NK cells were isolated using a negative isolation kit (STEMCELL™ Technologies 17955) from the total PBMC population purified from whole blood. NK cell pellet was then resuspended in DMEM medium (Corning™ 10-013-CV) with 10% heat-inactivated fetal bovine serum (FBS; Corning® 35-011-CV), 10 mM HEPES (Gibco™ 15-630-080), and 1% Penicillin Streptomycin (Corning™ 30-002-CI), and 50 IU/mL human IL-2 (Miltenyi Biotec® 130-097-748), at a concentration of 4×10^5 cells/mL. For the NK cell cytotoxicity assays, 50 μL (2×10^4) of cell suspension was plated in the 96-well plate (Grenier® Bio One™ 655090) containing 50 μl (4×10^3) HT1080-luc cells (ATCC® CCL-121-luc2) in DMEM (Gibco™ 11875-093; with L-glutamine) with 10% heat-inactivated fetal bovine serum (FBS; Corning® 35-011-CV), 10 mM HEPES (Gibco™ 15-630-080), and 1% Penicillin Streptomycin (Corning™ 30-002-CI). […] The plates were then incubated for 24 hours at 37° C., 5% CO2. Post-incubation, plates was centrifuged at 250×g for 5 minutes and 100 μl supernatant discarded. Samples were then incubated 10 minutes with 50 μl Bright-Glo™ Luciferase Assay system (Promega™ E2620). Luminescence upon excitation at 570 nm was read using a CLARIOstar® plate-reader with MARS Data Analysis Software™. Data was fit to a four-parameter non-linear regression in GraphPad Prism™ 8.0.2 to generate an EC50 value.

HT1080-luc cells = assay: as above; assay type: cell-based, human; settings: in comparison to NK:HT1080-luc co-culture without heterotandem complex (NK-TICA)
Description: as §1, §2

[2] = system: NK cells co-cultured with the HT1080-luc tumor cell line; assay: Cytokine secretion assay (IFN-gamma, TNF-alpha; NK:HT1080-luc co-culture); assay type: cell-based, human; settings: for TNF-alpha and IFN-gamma production from NK cells: 2 nM construct, Luminex, FIG. 11
Description: as §1
NK cells were isolated using a negative isolation kit (STEMCELL Technologies® 17955) from the total PBMC population purified from whole blood. NK cell pellet was then resuspended in DMEM medium (Corning™ 10-013-CV) with 10% heat-inactivated fetal bovine serum (FBS; Corning® 35-011-CV), 10 mM HEPES (Gibco™ 15-630-080), and 1% Penicillin Streptomycin (Corning™ 30-002-CI), and 50 IU/mL human IL-2 (Miltenyi Biotec® 130-097-748), at a concentration of 4×10^5 cells/mL. For the NK cell cytokine secretion assay, […] NK cell in 50 μl cell suspension were plated in the 96-well U-bottom plate (Grenier Bio One™ 650180) containing 50 μl (4×10^4) HT1080-luc cells (ATCC® CCL-121-luc2) in DMEM (Gibco™ 11875-093; with L-glutamine) with 10% heat-inactivated fetal bovine serum (FBS; Corning® 35-011-CV), 10 mM HEPES (Gibco™ 15-630-080), and 1% Penicillin Streptomycin (Corning™ 30-002-CI). […] The plates were then incubated for 4 hours at 37° C., 5% CO2. Post-incubation, plates was centrifuged at 250×g for 5 minutes and 100 μl supernatant harvested. Samples were immediately stored at −20° C. or assessed for cytokine levels. Interferon-gamma or TNF-alpha levels were measured in 50 μl of collected supernatants through the Human IFN-gamma Quantikine™ ELISA kit (R&D Systems DIF50C) or Human TNF-alpha Quantikine™ ELISA kit (R&D Systems DTAOOD). Data was acquired at wavelength of 450 nm on CLARIOstar® plate-reader and was fit to a four-parameter non-linear regression in CLARIOstar® plate reader MARS Data Analysis™ software and analyzed with GraphPad Prism™ 8.0.2 software to quantify to cytokine levels. Alternatively, TNF-alpha and IFN-gamma cytokine were measured from 25 μl of collected supernatant by Luminex Assay: Human XL Cytokine Discovery Premixed Kit (R&D Systems, FCS™ 18-05) Luminex 200™ flow instrument and xPONENT™ analysis software.

[3] = target: EPH receptor A2 (ephrin type-A receptor 2) (human) (UniProt P29317); assay: cell-based or functional assay
EPH receptor A2 (ephrin type-A receptor 2) (human), sequence (P29317 24-976): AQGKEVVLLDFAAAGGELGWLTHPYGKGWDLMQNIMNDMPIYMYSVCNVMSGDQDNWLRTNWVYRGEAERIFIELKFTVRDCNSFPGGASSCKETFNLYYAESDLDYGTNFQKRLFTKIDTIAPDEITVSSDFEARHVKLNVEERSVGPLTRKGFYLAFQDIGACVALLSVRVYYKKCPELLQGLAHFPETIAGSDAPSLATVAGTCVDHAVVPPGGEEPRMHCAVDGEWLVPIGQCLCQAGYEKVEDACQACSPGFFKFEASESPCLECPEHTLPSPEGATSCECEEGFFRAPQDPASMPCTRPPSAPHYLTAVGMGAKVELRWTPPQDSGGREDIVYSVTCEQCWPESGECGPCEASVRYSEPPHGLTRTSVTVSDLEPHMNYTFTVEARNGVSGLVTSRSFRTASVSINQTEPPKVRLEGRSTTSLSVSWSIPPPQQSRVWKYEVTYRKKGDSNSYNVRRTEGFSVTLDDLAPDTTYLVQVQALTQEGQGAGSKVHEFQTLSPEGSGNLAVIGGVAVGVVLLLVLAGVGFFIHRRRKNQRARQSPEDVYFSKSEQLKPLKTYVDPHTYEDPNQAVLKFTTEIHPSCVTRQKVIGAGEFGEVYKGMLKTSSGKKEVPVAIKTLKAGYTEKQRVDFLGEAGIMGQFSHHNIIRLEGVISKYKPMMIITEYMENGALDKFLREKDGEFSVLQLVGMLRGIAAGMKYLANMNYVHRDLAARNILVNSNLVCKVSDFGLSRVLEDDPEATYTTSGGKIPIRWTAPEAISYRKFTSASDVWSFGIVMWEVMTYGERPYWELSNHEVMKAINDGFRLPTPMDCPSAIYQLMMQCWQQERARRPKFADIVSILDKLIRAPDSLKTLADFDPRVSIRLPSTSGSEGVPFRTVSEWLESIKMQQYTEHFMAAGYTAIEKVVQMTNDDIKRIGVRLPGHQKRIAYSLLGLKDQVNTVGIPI

NKp46 (human) = NKp46 (human) (UniProt O76036); assay: cell-based or functional assay
NKp46 (human), sequence (O76036 22-304): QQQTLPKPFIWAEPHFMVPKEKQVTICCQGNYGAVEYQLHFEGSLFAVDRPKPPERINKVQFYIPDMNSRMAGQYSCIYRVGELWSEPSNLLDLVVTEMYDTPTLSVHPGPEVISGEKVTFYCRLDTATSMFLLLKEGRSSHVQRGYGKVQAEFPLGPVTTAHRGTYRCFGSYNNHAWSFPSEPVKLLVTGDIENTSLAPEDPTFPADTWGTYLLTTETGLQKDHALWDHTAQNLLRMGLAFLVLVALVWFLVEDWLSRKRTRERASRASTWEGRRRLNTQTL

| Molecule | EC50 [1] | effect on tumor cell killing by NK cells, in words (HT1080-luc cells) | TNF-alpha and IFN-gamma production from NK cells [2] | EC50, NK cytotoxicity assay (HT1080-luc luminescence) [3] | also measured |
| --- | --- | --- | --- | --- | --- |
| CC(=O)N[C@H]1CSCCC(=O)N2CN3CN(C2)C(=O)CCSC[C@H](NC(=O)[C@H](CC(C)C)NC(=O)[C@H](Cc2ccc(O)cc2)NC(=O)[C@H](CC(=O)O)NC(=O)[C@@H]2CCCN2C(=O)[C@H](CC2CCC2)NC(=O)[C@H](Cc2ccc(O)cc2)NC1=O)C(=O)N[C@H](C)C(=O)N[C@@H](CC(=O)O)C(=O)N[C@@H](CCC(=O)O)C(=O)N[C@@H](Cc1ccc(O)cc1)C(=O)N[C@H](C(=O)N[C@@H](CCCCNC(=O)CCc1cn(CCOCCOCCOCCOCCOCCC(=O)N[C@@H](C)C(=O)N[C@@H](CCCCNC(=N)N)C(=O)N[C@@H](CC(=O)O)C(=O)N[C@H]2CSCCC(=O)N4CN5CN(C4)C(=O)CCSC[C@H](NC(=O)[C@H](CC(C)C)NC(=O)[C@@H]4CCCN4C(=O)[C@H](CC(N)=O)NC(=O)[C@H](C(C)C)NC(=O)[C@H](CC(C)C)NC(=O)[C@@H]4C[C@@H](O)CN4C2=O)C(=O)N[C@@H](CC(C)C)C(=O)N[C@@H](Cc2c[nH]cn2)C(=O)N2CCC[C@H]2C(=O)N[C@H](CC(=O)O)C(=O)N[C@@H](Cc2c[nH]c4ccccc24)C(=O)N[C@@H](CCCCNC(=N)N)C(=O)N[C@H](C(N)=O)CSCCC5=O)nn1)C(N)=O)CSCCC3=O [BCY17225] (I: A[hArg]DC[Hyp]LVNPLCLHP[dD]W[hArg]C-NH2 / II: Ac-CY[Cba]PDYLC[dA]DEYCK-NH2; linker I:4-I:11-I:18, II:1-II:8-II:13 via TATA; linker I:N-II:14 via X2; C-terminus assumed) | 3.6 pM | enhanced, dose-dependent effect in tumor cell killing | Cytokine production from NK cells was observed |  |  |
| CC(=O)N[C@H]1CSCCC(=O)N2CN3CN(C2)C(=O)CCSC[C@H](NC(=O)[C@H](CC(C)C)NC(=O)[C@H](Cc2ccc(O)cc2)NC(=O)[C@H](CC(=O)O)NC(=O)[C@@H]2CCCN2C(=O)[C@H](CC2CCC2)NC(=O)[C@H](Cc2ccc(O)cc2)NC1=O)C(=O)N[C@H](C)C(=O)N[C@@H](CC(=O)O)C(=O)N[C@@H](CCC(=O)O)C(=O)N[C@@H](Cc1ccc(O)cc1)C(=O)N[C@H](C(=O)N[C@@H](CCCCNC(=O)CCc1cn(CCOCCOCCOCCOCCNC(=O)CCOCC(COCCC(=O)NCCOCCOCCOCCOCCn2cc(CCC(=O)NCCCC[C@H](NC(=O)[C@@H]4CSCCC(=O)N5CN6CN(C5)C(=O)CCSC[C@H](NC(=O)[C@H](CC(C)C)NC(=O)[C@H](Cc5ccc(O)cc5)NC(=O)[C@H](CC(=O)O)NC(=O)[C@@H]5CCCN5C(=O)[C@H](CC5CCC5)NC(=O)[C@H](Cc5ccc(O)cc5)NC(=O)[C@@H](NC(C)=O)CSCCC6=O)C(=O)N[C@H](C)C(=O)N[C@@H](CC(=O)O)C(=O)N[C@@H](CCC(=O)O)C(=O)N[C@@H](Cc5ccc(O)cc5)C(=O)N4)C(N)=O)nn2)(COCCC(=O)NCCOCCOCCOCCOCCn2cc(CCC(=O)NCCCC[C@H](NC(=O)[C@@H]4CSCCC(=O)N5CN6CN(C5)C(=O)CCSC[C@H](NC(=O)[C@H](CC(C)C)NC(=O)[C@H](Cc5ccc(O)cc5)NC(=O)[C@H](CC(=O)O)NC(=O)[C@@H]5CCCN5C(=O)[C@H](CC5CCC5)NC(=O)[C@H](Cc5ccc(O)cc5)NC(=O)[C@@H](NC(C)=O)CSCCC6=O)C(=O)N[C@H](C)C(=O)N[C@@H](CC(=O)O)C(=O)N[C@@H](CCC(=O)O)C(=O)N[C@@H](Cc5ccc(O)cc5)C(=O)N4)C(N)=O)nn2)NC(=O)CCOCCOCCOCCOCCOCCC(=O)N[C@@H](C)C(=O)N[C@@H](CCCCNC(=N)N)C(=O)N[C@@H](CC(=O)O)C(=O)N[C@H]2CSCCC(=O)N4CN5CN(C4)C(=O)CCSC[C@H](NC(=O)[C@H](CC(C)C)NC(=O)[C@@H]4CCCN4C(=O)[C@H](CC(N)=O)NC(=O)[C@H](C(C)C)NC(=O)[C@H](CC(C)C)NC(=O)[C@@H]4C[C@@H](O)CN4C2=O)C(=O)N[C@@H](CC(C)C)C(=O)N[C@@H](Cc2c[nH]cn2)C(=O)N2CCC[C@H]2C(=O)N[C@H](CC(=O)O)C(=O)N[C@@H](Cc2c[nH]c4ccccc24)C(=O)N[C@@H](CCCCNC(=N)N)C(=O)N[C@H](C(N)=O)CSCCC5=O)nn1)C(N)=O)CSCCC3=O [BCY21686] | 1.3 pM | enhanced, dose-dependent effect in tumor cell killing | Cytokine production from NK cells was observed |  |  |
| BCY18048: EphA2 specific peptide BCY9594 linked to two NKp46 specific peptides (BCY17662) via N-(acid-PEG3)-N-bis(PEG3-azide) linker (peptide 1 A[hArg]DC[Hyp]LVNPLCLHP[dD]W[hArg]C; peptide 2 ACYLPDYLC[dK](Pent4ynoyl)DEYCA; linker I:4-I:11-I:18, II:2-II:9-II:14 via TATA; also: chain 1 N-terminus and chain 2 D-Lys(PYA) joined through N-(acid-PEG3)-N-bis(PEG3-azide) linker, two copies of chain 2) |  |  |  |  | secretion of IFN-gamma and TNF-alpha by NK cells ([2]; 10 nM construct, ELISA, FIG. 12): induced secretion of IFN-gamma and TNF-alpha |
| BCY21687: EphA2 specific peptide BCY9594 linked to three NKp46 specific peptides (BCY17224) via Methane-N-(PEG10-acid)-Tri(MeOPr-amide-PEG10-azide) linker (peptide 1 A[hArg]DC[Hyp]LVNPLCLHP[dD]W[hArg]C; peptide 2 Ac-CY[Cba]PDYLC[dA]DEYCK(Pent4ynoyl); linker I:4-I:11-I:18, II:1-II:8-II:13 via TATA; also: chain 1 N-terminus and chain 2 K(PYA) joined through Methane-N-(PEG10-acid)-Tri(MeOPr-amide-PEG10-azide) linker, three copies of chain 2) |  |  | Cytokine production from NK cells was observed |  |  |
| heterotandem bicyclic peptide complex BCY17226 (BCY17224: N-terminal acetyl; Cba (beta-cyclobutylalanine) and dA (D-Ala) within SEQ ID NO: 5; C-terminal Lys(PYA) joined to the linker azide; Ci, Cii, Ciii cyclised on TATA scaffold; BCY9594: HArg (homoarginine) as 2nd residue of the N-terminal extension; HyP, dD and HArg within SEQ ID NO: 2; Ci, Cii, Ciii cyclised on TATA scaffold; N-terminus joined to the linker) peptide 1: AXDCXLVNPLCLHPDWXC peptide 2: CYXPDYLCADEYCK |  |  |  | 6.1 pM |  |
| heterotandem bicyclic peptide complex BCY15923 (linker I:4-I:11-I:18, II:2-II:9-II:14 via TATA; also: EphA2:NKp46 1:2, two copies of chain 2 on the linker, X5, X17: HyP or HArg, linker at chain B 16 to a chain's N-terminus via N-(acid-PEG3)-N-bis(PEG3-azide) linker) peptide 1: A[hArg]DC[Hyp]LVNPLCLHP[dD]W[hArg]C peptide 2: ACDLTTHNCQWGICAK(Pent4ynoyl) |  |  |  | 44 pM | EC50, NK cytotoxicity assay (HT1080-luc luminescence) (NKp46 (human)): 44 pM |
